Like-named read-outs stand apart in the source and are kept apart here.
Key:
mice (Swiss strain) = test: Acute toxicity, LD50 by oral route in mice (class E derivatives); format: in vivo; settings: mouse, suspension in 2 % carboxymethylcellulose, observation 7 days
Description: (§1) The letal doses 50 (LD50) by oral route (suspension in 2 % carboxymethylcellulose) are reported herinbelow: TABLE 9

[1] = Pharmacokinetics, plasma level by HPLC (MS001); format: in vivo, Wistar male rats; settings: rat, 0.5 mg/kg/os
Procedure: The presence of MS001 in plasma was detected by HPLC.
With the optimized method the detection limit was of 0.20 µg per ml of plasma.

mouse [2] = test: Spontaneous motility, Dews method modified according to Carminati (class E derivatives); format: in vivo; settings: mouse (Strain Swiss)
Description: (§2) The Dews method was used, modified according to Carminati (Arch. int. Pharmacodyn. et Thér 181, 68,1969).

acetylcholinesterase = format: in vivo, Wistar male rats; settings: rat
SWISS male mice = test: Electroencephalographic activity (class E derivatives); format: in vivo; settings: 0.4 mg/kg/os, in the course of the successive 30 minutes
mouse [3] = test: Spontaneous motility, Dews method modified according to Carminati (class D derivatives); format: in vivo; settings: mouse (Swiss)
Description: as §2

[4] = Acute toxicity, LD50 by oral route in mice (class E derivatives); format: in vivo; settings: both sexes, Swiss, in vivo, mouse, suspension in 2 % carboxymethylcellulose, observation 7 days, read-out: LD50 per os
Description: as §1

SWISS mice [5] = test: Antagonism of the central stimulating (hypermotor) effect of scopolamine (class A derivatives); format: in vivo; settings: given 30 minutes before scopolamine 1 mg/kg s.c.
Description: (§3) At this dose the substance provoked in all the animals a considerable increase (80-100%) of the spontaneous motility, studied according to the above mentioned method.

mouse [6] = test: Spontaneous motility, Dews method modified according to Carminati (class A derivatives); format: in vivo; settings: mouse (Swiss), minimum doses
Description: as §2

[7] = Acute toxicity, LD50 by oral route in mice (class A derivatives); format: in vivo; settings: both sexes, Swiss, in vivo, mouse, suspension in 2 % carboxymethylcellulose, observation 7 days, read-out: LD50 per os
Description: The letal doses 50 (LD50) by oral route (suspension in 2 % carboxymethylcellulose) are reported herinbelow: TABLE 1

SWISS mice [8] = test: Antagonism of the central stimulating (hypermotor) effect of scopolamine (class D derivatives); format: in vivo; settings: given 30 minutes before scopolamine 1 mg/kg s.c.
Description: as §3

SWISS mice [9] = test: Antagonism of the central stimulating (hypermotor) effect of scopolamine (class E derivatives); format: in vivo; settings: given 30 minutes before scopolamine 1 mg/kg s.c.
Description: At this dose the substance provoked a considerable increase (80-100%) of the spontaneous motility, studied according to the above mentioned method.

mouse [10] = test: Toxicity, LD50 by intraperitoneal route (class C derivatives); format: in vivo
Description: In the following table reported are the LD50 values determined on mouse for the compounds listed and compared with the corresponding LD50 value for physostigmine, administered by the same (intraperitoneal) route.

[11] = Acute toxicity, LD50 by oral administration in mice (class F derivatives); settings: both, Swiss, mouse, in vivo, po
[12] = Acute toxicity, LD50 by oral route in mice (class D derivatives); format: in vivo; settings: both sexes, Swiss, in vivo, mouse, suspension in 2 % carboxymethylcellulose, observation 7 days, read-out: LD50 per os
Description: The letal doses 50 (LD50) by oral route (suspension in 2 % carboxymethylcellulose) are reported hereinbelow: TABLE 6

mice = test: Toxicity, LD50 by intraperitoneal route (class B derivatives); format: in vivo; settings: death within 24 hours of 50% of the tested animals
Description: In the following table reported are LD50 values determined on mice for the listed compounds and compared with that of physostigmine administered by the same (intraperitoneal) route.

[13] = acetylcholinesterase inhibition 20 minutes after oral administration, limits in brackets

Question: For `CN1CC[C@@]2(C)c3cc(OC(=O)NCCCCCCCCNC(=O)Oc4ccc5c(c4)[C@]4(C)CCN(C)[C@@H]4N5C)ccc3N(C)[C@@H]12` [MS001, (3a S-cis) - 1,2,3,3a,8,8a hexahydro - 1,3a,8 - trimethyl pyrrol [2,3-b]-indol-5-ol-1,8-octandicarbamate ester], which LD50 per os (mice (Swiss strain)) is on record?
Answer: 51.40 ± 5.48 mg/kg

Question: What about the “concentration in plasma after 15 minutes” value [1] of the same molecule?
Answer: 10640 ± 6260 ng/mL

Question: What about the “concentration in plasma after 120 minutes” value [1] of the same molecule?
Answer: 32120 ± 6410 ng/mL

Question: What about the “concentration in plasma after twelve hours” value [1] of the same molecule?
Answer: 11310 ± 3180 ng/mL

Question: And the “maximum peak in plasma” value [1]?
Answer: 41.24 ± 8.36 µg/mL

Question: What about the “time of the maximum peak in plasma” value [1] of the same molecule?
Answer: 90 '

Question: What about the “oral dose causing a significant decrease of the spontaneous motility” value (“oral dose causing a significant decrease” for short) (mouse [2]) of the same molecule?
Answer: 0.25 mg/kg

Question: What about the “decrease of the spontaneous motility (on average)” value (mouse [2]; oral, 0.25 mg/kg) of the same molecule?
Answer: ~-25%

Question: What about the “INHIBITION % OF ACETYLCHOLINESTERASE (AchE) after 60 minutes brain” value (acetylcholinesterase; 0.2 mg/kg/OS) of the same molecule?
Answer: 43.41 ± 3.25%

Question: And the “INHIBITION % OF ACETYLCHOLINESTERASE (AchE) after 60 minutes serum” value (acetylcholinesterase; 0.2 mg/kg/OS)?
Answer: 36.22 ± 6.20%

Question: And the “INHIBITION % OF ACETYLCHOLINESTERASE (AchE) after 120 minutes brain” value (acetylcholinesterase; 0.2 mg/kg/OS)?
Answer: 19.6 ± 3.41%

Question: What about the “INHIBITION % OF ACETYLCHOLINESTERASE (AchE) after 120 minutes serum” value (acetylcholinesterase; 0.2 mg/kg/OS) of the same molecule?
Answer: 23.12 ± 5.28%

Question: And the “ED50 (mg/kg/os) brain” value (acetylcholinesterase; [13])?
Answer: 0.17 (0.12 - 0.23) mg/kg/os

Question: What about the “ED50 (mg/kg/os) serum” value (acetylcholinesterase; [13]) of the same molecule?
Answer: 0.18 (0.12 - 0.26) mg/kg/os

Question: And the “modifications of the electroencephalogram” value (SWISS male mice)?
Answer: increase of the amplitude and a decrease of the frequency of the electroencephalogram

Question: For `CNC(=O)Oc1ccc2c(c1)[C@]1(C)CCN(C)[C@@H]1N2C` [Physostigmine, physostigmine, reference compound], which “oral dose causing a significant decrease” value (mouse [3]) is on record?
Answer: 0.6 mg/kg

Question: What about the LD50 at 7 days [4] of the same molecule?
Answer: 3.78 ± 0.86 mg/kg

Question: What about the “dose completely undoing the hypermotor effect of scopolamine” value (SWISS mice [5]) of the same molecule?
Answer: 0.4 mg/kg/os

Question: And the “oral dose causing a significant decrease” value (mouse [6])?
Answer: 0.6 mg/kg

Question: And the LD50 at 7 days [7]?
Answer: 4.37 ± 1.22 mg/kg

Question: And the “oral dose causing a significant decrease” value (mouse [2])?
Answer: 0.6 mg/kg

Question: And the “INHIBITION % OF ACETYLCHOLINESTERASE (AchE) after 60 minutes brain” value (acetylcholinesterase; in vivo, 0.4 mg/kg)?
Answer: 22.3 ± 5.12%

Question: What about the “INHIBITION % OF ACETYLCHOLINESTERASE (AchE) after 60 minutes serum” value (acetylcholinesterase; in vivo, 0.4 mg/kg) of the same molecule?
Answer: 18.41 ± 4.16%

Question: And the “INHIBITION % OF ACETYLCHOLINESTERASE (AchE) after 120 minutes brain” value (acetylcholinesterase; in vivo, 0.4 mg/kg)?
Answer: 2.41 ± 1.33%

Question: What about the “INHIBITION % OF ACETYLCHOLINESTERASE (AchE) after 120 minutes serum” value (acetylcholinesterase; in vivo, 0.4 mg/kg) of the same molecule?
Answer: 3.44 ± 1.21%

Question: And the “ED50 (mg/kg/os) brain” value (acetylcholinesterase; in vivo, po)?
Answer: 0.38 (0.24 - 0.60) mg/kg/os

Question: What about the “ED50 (mg/kg/os) serum” value (acetylcholinesterase; in vivo, po) of the same molecule?
Answer: 0.37 (0.23 - 0.59) mg/kg/os

Question: What about the “dose completely undoing the hypermotor effect of scopolamine” value (SWISS mice [8]) of the same molecule?
Answer: 0.4 mg/kg/os

Question: What about the “dose completely undoing the hypermotor effect of scopolamine” value (SWISS mice [9]) of the same molecule?
Answer: 0.4 mg/kg/os

Question: And the “LD50 (mg/kg i.p)” value (mouse [10])?
Answer: 0.6 mg/kg i.p

Question: What about the LD50 [11] of the same molecule?
Answer: 4.5 mg/kg

Question: What about the LD50 at 7 days [12] of the same molecule?
Answer: 4.12 ± 0.89 mg/kg

Question: And the “LD50 (mg/kg i.p.)” value (mice)?
Answer: 0.6 mg/kg i.p.

From EP0513703A2, “Carbamate esters of eseroline having anticholinesterase activity, a process for their preparation and relative pharmaceutical compositions containing them as the active principle” (priority 1991, dated 1992)
